{
  "source": "paper PMC8042727",
  "about": "“Apoptosis-like cell death upon kinetoplastid induction by compounds isolated from the brown algae Dictyota spiralis” (Parasites & Vectors, 2021)",
  "key": {"Trypanosoma cruzi [1]": {"system": "Trypanosoma cruzi", "experiment": "ATP level (CellTiter-Glo)", "assay_type": "cell-based", "details": "T. cruzi, IC90, 24 h, relative to negative control", "description": "The CellTiter-Glo® luminescent cell viability assay (Promega, WI, USA) was used to quantify the adenosine triphosphate (ATP) concentration. Cells of the kinetoplastid strains (for both L. amazonensis [2 × 10^6 cells/ml] and T. cruzi [5 × 10^5cells/ml]) were incubated for 24 h with the compounds to be tested, at IC90 and 26 °C. After incubation, the cells were centrifuged and resuspended in 100 μl. To this volume, we added 100 μl of the reactive in white 96-well plates. After incubation, the luminescence signal was measured using the Enspire multimode plate reader. The decrease in ATP level was expressed as a percentage relative to the negative control. Miltefosine and benznidazole were tested as the positive control for L. amazonensis and T. cruzi, respectively."}, "[2]": {"system": "Trypanosoma cruzi epimastigotes (Y strain)", "experiment": "In vitro evaluation on T. cruzi epimastigotes (AlamarBlue, 72 h)", "assay_type": "cell-based", "details": "nonlinear regression of AlamarBlue curve, read-out: IC90 Trypanosoma cruzi: epimastigote", "description": "Experiments including in vitro activity assays of isolated compounds 1–3 were performed against the promastigote and amastigote stages of Leishmania amazonensis (MHOM/BR/77/LTB0016) and the epimastigote stage of Trypanosoma cruzi (Y strain). Promastigotes of L. amazonensis were cultured in Schneider’s medium (Sigma-Aldrich, St. Louis, MO, USA). Typanosoma cruzi strain Y was cultured in liver Infusion tryptose (LIT) medium. The three molecules 1-3 were tested against epimastigotes of T. cruzi. Briefly, the molecules were dissolved in DMSO in 96-well plates and a serially diluted concentration was made in 100 μl of LIT medium supplemented with 10% heat-inactivated FBS. In all tests, a maximum of 1% DMSO was used to dissolve the highest dose of the compounds without inducing any effects on the parasites; epimastigotes in the logarithmic growth phase were then counted, adjusted to 5 × 10^5 cells/ml, distributed on the previous 96-well plate and incubated at 27 °C for 72 h. The plate was observed under an inverted microscope after 72 h of incubation and analyzed statistically as described for the leishmanicidal test. Hoechst dye is a blue-fluorescent dye that stains condensed chromatin of apoptotic cells. To detect DNA condensation, the chromatin condensation/dead cell apoptosis kit was used (Invitrogen, Thermo Fisher Scientific, Waltham, MA, USA). Cells were incubated in the presence of the compounds to be tested at IC90. The IC90 values were determined using nonlinear regression of the AlamarBlue® curve. After 24 h of incubation, cells were harvested and resuspended in medium, following which 1 μl of Hoechst 33342 stock solution was added to parasites and incubated for 20 min. Results were analyzed by cell imaging using the Evos FL cell imaging system (Thermo Fisher Scientific). The experiments were repeated using a double-stain apoptosis detection kit (Hoechst 33342/PI; Thermo Fisher Scientific). […] A positive control was also tested: miltefosine (L. amazonensis) and benznidazole (T. cruzi)."}, "[3]": {"experiment": "Cytotoxicity on macrophages (AlamarBlue, 24 h)", "assay_type": "cell-based", "details": "mouse, J774A.1 macrophages, J774A.1, 24 h, read-out: CC50: murine macrophages", "description": "Cytotoxicity of the tested molecules was evaluated after 24 h using macrophages of the murine cell line J774.A1 (American Type Culture Collection #TIB-67). The cells were maintained in DMEM medium at 37 °C in a 5% CO2 humidified incubator. The viability of the macrophages was determined with the AlamarBlue assay and the emitted fluorescence was assayed in an Enspire microplate reader (PerkinElmer Inc.) at 570/585 nm. Briefly, 50 µl of macrophages was placed in a 96-well flat bottom plate at a density of 2 × 10^5/ml in RPMI medium supplemented with 10% FBS without phenol. Cells were allowed to adhere for 15 min, and their progress was checked using a Leika inverted microscope (Leika Camera AG, Wetzlar, Germany). At the same time, a serially dilution of the test compounds was made in a deep 96-well plate with the same medium, and then 50 µl of each serially diluted molecule was added to each well of the 96-well flat bottom plate. Finally, 10% of AlamarBlue was added to each well. The plates were incubated at 37 °C in 5% CO2 for 24 h. Dose–response curves were plotted and the 50% cytotoxic concentrations (CC50) were obtained. The analyses were performed in triplicate."}, "Trypanosoma cruzi [4]": {"system": "Trypanosoma cruzi", "experiment": "Oxidative stress / ROS accumulation (CellROX Deep Red)", "assay_type": "cell-based", "details": "T. cruzi, IC90, 24 h", "description": "(§1) The reagent used for this assay was a fluorogenic probe to measure cellular oxidative stress upon oxidation by reactive oxygen species (ROS). To perform the test, cells were incubated with the compounds to be tested, at IC90 for 24 h. The cells were centrifuged and resuspended in a volume of 50 μl, following which CellROX™ Deep Red oxidative stress reagent (Thermo-Fisher Scientific) was added to 96-well plates at […]. The plates were then incubated for 30 min at 37 °C. After incubation, the results were analyzed by cell imaging using the Evos cell imaging system. Cells treated with different compounds were compared with untreated control cells and the positive control. Fluorescence intensity was also measured using the Enspire multimode plate reader at excitation/emission wavelengths of 640/665 nm. Accumulation ROS at the cellular level is a good indicator of oxidative stress and is precursor to a chain reaction leading damage at the cellular level to proteins, nucleic acids, lipids, membrane and organelles. These cellular alterations can lead to activation of the cell death process. As such, ROS play an important role in cell signaling and the apoptosis pathway. An intracellular excess of ROS can be detected by the cell-permeable CellROX™ Deep Red reagent, which is a fluorogenic ROS sensor."}, "L. amazonensis": {"system": "L. amazonensis", "parameters": "method as in PMID 22970332", "details": "read-out: IC50 (inhibition of infection by L. amazonensis); cited from earlier work"}, "T. cruzi": {"system": "T. cruzi", "parameters": "method as in PMID 23442789", "details": "read-out: IC50 against T. cruzi; cited from earlier work"}, "[5]": {"system": "Leishmania amazonensis amastigotes", "experiment": "Anti-amastigotes assay (intra-macrophagic stage, J774A.1)", "assay_type": "cell-based", "details": "J774.A1; Leishmania amazonensis, intracellular in J774A.1; read-out: IC50: amastigote", "description": "The three molecules 1-3 were tested against the intra-macrophagic stage of L. amazonensis as previously described. Briefly, in a 96-well, flat-bottom plate, macrophages of the J774A.1 cell line (American Type Culture Collection #TIB-67) were cultured at a density of 2 × 10^5 cells/ml in RPMI 1640 medium supplemented with 10% heat-inactivated FBS and incubated for 1 h at 37 °C in a 5% CO2 atmosphere to allow almost complete attachment of the cells. The macrophages were then infected with L. amazonensis promastigotes in the stationary phase (7-day-old culture) at a ratio of 1:10 (macrophage:parasite) at a concentration of 2 × 10^6 cells/ml and incubated at 37 °C in 5% CO2 for 24 h. Wells were washed with medium to remove external promastigotes. Thereafter, the infected macrophages were treated with the serially diluted concentrations of the pure compounds for 24 h, following which the medium was removed carefully and replaced by 30 μl of new medium containing 0.05% sodium dodecyl sulfate and the plate shaken for 30 s. Subsequently, 170 μl of Schneider’s medium was added to each well to give a final volume of 200 μl, and 20 μl of AlamarBlue® was added to the plate; the plate was then incubated at 26 °C for 72 h, following which the plates were analyzed using the same protocol as for the promastigotes assay."}, "[6]": {"system": "Leishmania amazonensis promastigotes", "experiment": "Anti-promastigotes assay (AlamarBlue, 72 h)", "assay_type": "cell-based", "description": "Experiments including in vitro activity assays of isolated compounds 1–3 were performed against the promastigote and amastigote stages of Leishmania amazonensis (MHOM/BR/77/LTB0016) and the epimastigote stage of Trypanosoma cruzi (Y strain). Promastigotes of L. amazonensis were cultured in Schneider’s medium (Sigma-Aldrich, St. Louis, MO, USA). Typanosoma cruzi strain Y was cultured in liver Infusion tryptose (LIT) medium.\nThe bioassay was performed using the AlamarBlue® method as previously described. Promastigotes of L. amazonensis were grown at 26 °C in RPMI 1640 modified medium (Gibco BRL Life Technologies Inc., Gaithersburg, MD, USA) and supplemented with 10% heat-inactivated fetal bovine serum (FBS). Cultures in the logarithmic phase were seeded in sterilized 96-well microtiter plates (Corning™, Corning, NY, USA) (10^6 parasites/ml) containing the samples dissolved in 1% DMSO at the suitable concentration to be tested in serial dilutions, and Leishmania medium (RPMI 1640) was used to reach a final volume of 200 μl per well; then 10% of AlamarBlue® was added to the entire plate. After an incubation of 72 h, the plate was checked visually using an inverted microscope, then analyzed using an Enspire multimode plate reader (PerkinElmer, Inc., Waltham, MA, USA) at excitation and emission wavelengths of 570 and 585 nm, respectively. Dose–response curves were plotted, and the concentration at which one half of the maximal inhibitory effect was obtained (IC50) was determined. The analyses were performed in triplicate.\n(§2) Hoechst dye is a blue-fluorescent dye that stains condensed chromatin of apoptotic cells. To detect DNA condensation, the chromatin condensation/dead cell apoptosis kit was used (Invitrogen, Thermo Fisher Scientific, Waltham, MA, USA). Cells were incubated in the presence of the compounds to be tested at IC90. The IC90 values were determined using nonlinear regression of the AlamarBlue® curve. After 24 h of incubation, cells were harvested and resuspended in medium, following which 1 μl of Hoechst 33342 stock solution was added to parasites and incubated for 20 min. Results were analyzed by cell imaging using the Evos FL cell imaging system (Thermo Fisher Scientific). The experiments were repeated using a double-stain apoptosis detection kit (Hoechst 33342/PI; Thermo Fisher Scientific). […] A positive control was also tested: miltefosine (L. amazonensis) and benznidazole (T. cruzi)."}, "[7]": {"system": "Leishmania amazonensis promastigotes", "experiment": "DNA condensation assay (Hoechst 33342 / PI)", "assay_type": "cell-based", "details": "L. amazonensis promastigotes, IC90, 24 h", "description": "as §2\nDNA condensation is an important cellular event, providing evidence of apoptotic cell death. Hoechst dye is a blue-fluorescent dye that stains condensed chromatin. […] Also, using propidium iodine (PI), it is possible to distinguish dead cells, which stain red when PI penetrates the nucleus. The results of staining were evaluated using cell imaging. Different microscopy images are regrouped in Fig. 2 (for L. amazonensis) and Fig. 3 (for T. cruzi). […] A clear reduction in cell number is also evident."}, "Leishmania amazonensis": {"system": "Leishmania amazonensis", "experiment": "Oxidative stress / ROS accumulation (CellROX Deep Red)", "assay_type": "cell-based", "details": "L. amazonensis, IC90, 24 h", "description": "as §1"}},
  "data": [
    {"smiles": "O=C(Cn1ccnc1[N+](=O)[O-])NCc1ccccc1", "note": "[Benznidazole, reference compound]", "values": [
      {"measurement": "decrease in ATP concentration", "setting": "Trypanosoma cruzi [1]", "value": "> 80", "unit": "%"},
      {"measurement": "IC90", "setting": "[2]", "value": 25.6, "unit": "µM"},
      {"measurement": "CC50 at 24 h", "setting": "[3]", "value": 400, "unit": "µM"},
      {"measurement": "ROS accumulation (fluorescence vs negative control)", "setting": "Trypanosoma cruzi [4]", "value": "significant increase in fluorescence"}
    ]},
    {"smiles": "C[C@H]1/C=C/[C@@]2(C)CC[C@@H](C(C)(C)O)[C@@H]2[C@@H](O)C[C@](C)(O)/C=C/C1", "note": "[Dolabelladienetriol]", "values": [
      {"measurement": "IC50", "setting": "L. amazonensis", "value": 44, "unit": "µM"}
    ]},
    {"smiles": "CC(C)=CC(=O)C/C(C)=C/CC/C(C)=C/CC/C(C)=C/CO", "note": "[Eleganolone]", "values": [
      {"measurement": "IC50", "setting": "T. cruzi", "value": 58, "unit": "µM"}
    ]},
    {"smiles": "CCCCCCCCCCCCCCCCOP(=O)([O-])OCC[N+](C)(C)C", "note": "[Miltefosine, reference compound]", "values": [
      {"measurement": "IC50", "setting": "[5]", "value": 3.11, "unit": "µM"},
      {"measurement": "CC50 at 24 h", "setting": "[3]", "value": 72.2, "unit": "µM"},
      {"measurement": "IC50", "setting": "[6]; 72 h, read-out: IC50: promastigote", "value": "6.47 ± 0.58", "unit": "µM"},
      {"measurement": "IC90", "setting": "[6]; nonlinear regression of AlamarBlue curve, read-out: IC90 Leishmania amazonensis: promastigote", "value": 9.63, "unit": "µM"},
      {"measurement": "chromatin condensation / cell death stage (Hoechst/PI staining)", "setting": "[7]", "value": "dead cells"},
      {"measurement": "ROS accumulation (fluorescence vs negative control)", "setting": "Leishmania amazonensis", "value": "more remarkable"}
    ]}
  ]
}
